Measurements reported in US20030228566A1, “Method of and apparatus for screening for drug candidates” (BioTechPlex Corporation, priority 2002, published 2003).

Test system: normal human bronchial epithelial cells (NHBE)
Experiment: Cumulative dose kinetic responses of intracellular Ca++, Cl- and cell membrane potential (simultaneous three-fluorophore photon counting: Fluo-3, di-MEQ, RH421)
Type: cell-based
Conditions: for intracellular Ca++ response / intracellular Cl- response / membrane potential response: cumulative dosing
Protocol: Normal human bronchial/tracheal epithelial cells (NHBE, Clonetics) were cultured in T-25 cm^2 flasks at 37° C., 5% CO2 using Bronchial/Tracheal Epithelial Cell Growth Medium containing Retinoic Acid (BEGM, w/RA, Clonetics). When the NHBE cells in the T-25 flasks reached 60%-80% confluency, the cells were passaged using a seeding density of 3500 cells/cm^2. A portion of the cells was passaged in T-25 flasks again while the remaining cells were seeded on UV-exposed Vitrogen (pH balanced 1:1 BEGM to Vitrogen) coated 4-well cover glass chambers (LabTek II). NHBE cells normally attached to the collagen-coated cover glass chamber within 24 hrs. Prior to these cells reaching 60% confluency, they were used for all the experiments described below. Cells used in all the experiments were either 2nd or 3rd passage cells maintained in Bronchial/Tracheal Epithelial Cell Growth Medium with Retinoic Acid (BEGM, w/RA, Clonetics).
The following procedures for loading the cells with fluorophore were employed. Balanced Hank's (BH) solution without phenol red was used as the medium for all the fluorophore preparations and cell washings unless stated otherwise. Fluo-3 (a Ca^++ indicator), di-MEQ (a Cl^− indicator) and RH421 (a cell membrane potential indicator) were loaded into cells sequentially at room temperature. Cells were first incubated with 8 μM Fluo-3 solution for 60 minutes, followed by incubating with 50 μM di-MEQ for 5 minutes and then finally with 10 μM RH421 for 5 minutes. Extraneous dyes were washed with BH solution between each fluorophore loading procedure. The cells were allowed to stabilize in BEGM for a minimum of 15 minutes at room temperature prior to the beginning of each experiment.
Experiments were performed at room temperature. All tested agents were prepared in Balanced Hank's Solution. One of the wells of the cover glass chamber was placed on the stage of the inverted microscope and the cells loaded with the fluorophores were visually focused with the violet, green and orange emitted light from the cells approximately in the same focal plane. At a sampling frequency of 100 Hz, cells with the following photon counts were chosen for the study: 20 to 50 counts per channel (cpc) for Ca^++ fluorescence, 70 to 200 cpc for Cl^− fluorescence, and 20 to 50 cpc for cell membrane potential fluorescence. After establishing a 2 minute baseline, increasing doses of the agent of interest were added topically to the wells 2 minutes apart. At the end of each experiment, a toxic dose of the agent of interest was added to the sample to either shrink or swell the cells beyond their normal cell volume regulatory range. This caused the fluorescence signals of each of these fluorophores to reach either maximum or minimum values. […] Background fluorescence was recorded using a cell free area of the same well. If the signal to background ratio was not higher than a factor of 10, the experiments were also discarded.

[1] = 25 μM to 500 μM cumulative dosing, general statement
[2] = Glibenclamide concentrations below 500 μM

In the case of COc1ccc(Cl)cc1C(=O)NCCc1ccc(S(=O)(=O)NC(=O)NC2CCCCC2)cc1 [Glibenclamide], the “[Cl-]i (MEQ fluorescence inversely proportional to [Cl-]i), overall effect” value [1] is reported as “increased”, the “cell membrane polarization, overall effect” value [1] is reported as “hyperpolarized” and the “intracellular Ca++ response” value [2] is reported as “little affected”. For the same compound, the “intracellular Cl- response” value [2] was “declines as Glibenclamide concentration increases”, the membrane potential response [2] was “little affected” and the “intracellular Ca++ response” value (concentration 500 μM) was “rapid increase”. The “intracellular Cl- response” value (concentration 500 μM) was “simultaneous drop” and the membrane potential response (concentration 500 μM) was “simultaneous increase”.

For O=c1ccn([C@@H]2O[C@H](COP(=O)(O)OP(=O)(O)OP(=O)(O)O)[C@@H](O)[C@H]2O)c(=O)[nH]1 [UTP, uridine triphosphate], the “intracellular Ca++ response” value (concentration 0.1 mM) was “rapid increase”, the “intracellular Cl- response” value (concentration 0.1 mM) was “essentially no changes” and the membrane potential response (concentration 0.1 mM) was “essentially no changes”. The “intracellular Ca++ response” value (concentration 1 mM) was “rapid increase”, the “intracellular Cl- response” value (concentration 1 mM) was “essentially no changes” and the membrane potential response (concentration 1 mM) was “essentially no changes”.
